#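 Method: 48-hour compound exposure of cells in 96-well plates, five concentrations, linear interpolation of endpoints. Definition used: TGI = concentration required for complete inhibition of growth.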
# Legend:
# Assay in all cases: NCI anticancer screen, dose series, 48 h
# UACC-62 melanoma = system: UACC-62 melanoma
# MDA-MB-435 = system: MDA-MB-435
# SR leukemia = system: SR leukemia
# MCF7 breast = system: MCF7 breast
# CCRF-CEM leukemia = system: CCRF-CEM leukemia
# UO-31 renal = system: UO-31 renal
# COLO 205 colon = system: COLO 205 colon
# U251 CNS = system: U251 CNS
# M19-MEL melanoma = system: M19-MEL melanoma
# SF-268 CNS = system: SF-268 CNS
# DU-145 prostate = system: DU-145 prostate
# HOP-18 NSCLC = system: HOP-18 NSCLC
# SK-MEL-28 melanoma = system: SK-MEL-28 melanoma
# CAKI-1 renal = system: CAKI-1 renal
# ACHN renal = system: ACHN renal
# UACC-257 melanoma = system: UACC-257 melanoma
# IGROV1 ovarian = system: IGROV1 ovarian
# EKVX NSCLC = system: EKVX NSCLC
# KM20L2 colon = system: KM20L2 colon
# TK-10 renal = system: TK-10 renal
# HCT-116 colon = system: HCT-116 colon
# MALME-3M melanoma = system: MALME-3M melanoma
# SK-MEL-5 melanoma = system: SK-MEL-5 melanoma
# DLD-1 colon = system: DLD-1 colon
# SF-539 CNS = system: SF-539 CNS
# BT-549 breast = system: BT-549 breast
# DMS 273 small cell lung = system: DMS 273 small cell lung
# RPMI-8226 leukemia = system: RPMI-8226 leukemia
# HOP-92 NSCLC = system: HOP-92 NSCLC
# LXFL 529 NSCLC = system: LXFL 529 NSCLC
# OVCAR-4 ovarian = system: OVCAR-4 ovarian
# K-562 leukemia = system: K-562 leukemia
# OVCAR-8 ovarian = system: OVCAR-8 ovarian
# A549 NSCLC = system: A549 NSCLC
# A498 renal = system: A498 renal
# SF-295 CNS = system: SF-295 CNS
# NCI-H23 lung = system: NCI-H23 lung
# LOX IMVI melanoma = system: LOX IMVI melanoma
# DMS 114 small cell lung = system: DMS 114 small cell lung
# T-47D breast = system: T-47D breast
# HCC-2998 colon = system: HCC-2998 colon
# MDA-N = system: MDA-N
# SNB-19 CNS = system: SNB-19 CNS
# NCI-H522 lung = system: NCI-H522 lung
# OVCAR-3 ovarian = system: OVCAR-3 ovarian
# HL-60(TB) leukemia = system: HL-60(TB) leukemia
# MDA-MB-231 breast = system: MDA-MB-231 breast
# HS 578T breast = system: HS 578T breast
# OVCAR-5 ovarian = system: OVCAR-5 ovarian
# NCI-H226 lung = system: NCI-H226 lung
# RXF 393 renal = system: RXF 393 renal
# 786-0 renal = system: 786-0 renal
# HCT-15 colon = system: HCT-15 colon
# SNB-75 CNS = system: SNB-75 CNS
# NCI/ADR-RES ovarian = system: NCI/ADR-RES ovarian
# SW-620 colon = system: SW-620 colon
# M14 melanoma = system: M14 melanoma
# HT29 colon = system: HT29 colon
# PC-3 prostate = system: PC-3 prostate
# KM12 colon = system: KM12 colon
# NCI-H460 lung = system: NCI-H460 lung
# SK-MEL-2 melanoma = system: SK-MEL-2 melanoma
# MOLT-4 leukemia = system: MOLT-4 leukemia
# SK-OV-3 ovarian = system: SK-OV-3 ovarian
# SN12C renal = system: SN12C renal
# HOP-62 NSCLC = system: HOP-62 NSCLC
structure (smiles),measurement,setting,value
CC1(O)CC2(O)C=CC3=C(C(=O)c4cccc(O)c4C3=O)C2(O)C(=O)C1O (stereo unspecified),TGI,UACC-62 melanoma,6.88 µM
same,TGI,MDA-MB-435,3.32 µM
same,TGI,SR leukemia,18.1 µM
same,TGI,MCF7 breast,2.6 µM
same,TGI,CCRF-CEM leukemia,2.87 µM
same,TGI,UO-31 renal,4 µM
same,TGI,COLO 205 colon,0.436 µM
same,TGI,U251 CNS,9.81 µM
same,TGI,M19-MEL melanoma,1.76 µM
same,TGI,SF-268 CNS,17.1 µM
same,TGI,DU-145 prostate,32.3 µM
same,TGI,HOP-18 NSCLC,3.09 µM
same,TGI,SK-MEL-28 melanoma,3.2 µM
same,TGI,CAKI-1 renal,2.24 µM
same,TGI,ACHN renal,3.1 µM
same,TGI,UACC-257 melanoma,2.67 µM
same,TGI,IGROV1 ovarian,10.6 µM
same,TGI,EKVX NSCLC,5.99 µM
same,TGI,KM20L2 colon,2.71 µM
same,TGI,TK-10 renal,3.12 µM
same,TGI,HCT-116 colon,2.05 µM
same,TGI,MALME-3M melanoma,0.966 µM
same,TGI,SK-MEL-5 melanoma,7.58 µM
same,TGI,DLD-1 colon,2.31 µM
same,TGI,SF-539 CNS,10 µM
same,TGI,BT-549 breast,2.58 µM
same,TGI,DMS 273 small cell lung,16.1 µM
same,TGI,RPMI-8226 leukemia,4.66 µM
same,TGI,HOP-92 NSCLC,2.19 µM
same,TGI,LXFL 529 NSCLC,1.08 µM
same,TGI,OVCAR-4 ovarian,2.86 µM
same,TGI,K-562 leukemia,10.4 µM
same,TGI,OVCAR-8 ovarian,8.08 µM
same,TGI,A549 NSCLC,25.3 µM
same,TGI,A498 renal,14.9 µM
same,TGI,SF-295 CNS,26.7 µM
same,TGI,NCI-H23 lung,10.7 µM
same,TGI,LOX IMVI melanoma,3.37 µM
same,TGI,DMS 114 small cell lung,3.44 µM
same,TGI,T-47D breast,3.51 µM
same,TGI,HCC-2998 colon,7.54 µM
same,TGI,MDA-N,3.24 µM
same,TGI,SNB-19 CNS,30.4 µM
same,TGI,NCI-H522 lung,0.29 µM
same,TGI,OVCAR-3 ovarian,5.19 µM
same,TGI,HL-60(TB) leukemia,2.17 µM
same,TGI,MDA-MB-231 breast,11.8 µM
same,TGI,HS 578T breast,10.7 µM
same,TGI,OVCAR-5 ovarian,9.55 µM
same,TGI,NCI-H226 lung,17.6 µM
same,TGI,RXF 393 renal,2.13 µM
same,TGI,786-0 renal,3.84 µM
same,TGI,HCT-15 colon,2.98 µM
same,TGI,SNB-75 CNS,19.1 µM
same,TGI,NCI/ADR-RES ovarian,20.2 µM
same,TGI,SW-620 colon,1.67 µM
same,TGI,M14 melanoma,2.74 µM
same,TGI,HT29 colon,5.95 µM
same,TGI,PC-3 prostate,17.1 µM
same,TGI,KM12 colon,17.8 µM
same,TGI,NCI-H460 lung,34.3 µM
same,TGI,SK-MEL-2 melanoma,9.07 µM
same,TGI,MOLT-4 leukemia,2.8 µM
same,TGI,SK-OV-3 ovarian,28.5 µM
same,TGI,SN12C renal,6.66 µM
same,TGI,HOP-62 NSCLC,36.4 µM
